Test results: ChEMBL document CHEMBL3243945, “Antiinflammatory activity of isomeric phenylnaphthaleneacetic acids” (J Med Chem, 1977)

What was measured:
[1] = Dissociation constant, pKa of the compound in DMF-H2O (6.7% v/v) by titration method; assay type: physicochemical
Cavia porcellus = test: Antiinflammatory activity in depilated albino guinea pig assessed as suppression of UV radiation-induced skin erythema compound administered via gavage measured 2 hrs after UV irradiation exposure; assay type: functional; settings: light or radiation study, po, read-out: MED

pKa [1]	Compound	minimal effective dose (Cavia porcellus) [mg/kg]
6.9	O=C(O)Cc1cccc2cc(-c3ccccc3)ccc12	25
6.9	O=C(O)Cc1cccc2ccc(-c3ccccc3)cc12	100
6.6	O=C(O)Cc1ccc2cc(-c3ccccc3)ccc2c1	3.1
6.7	O=C(O)Cc1cc(-c2ccccc2)cc2ccccc12	50
6.7	O=C(O)Cc1ccc2ccc(-c3ccccc3)cc2c1	> 50
6.8	O=C(O)Cc1ccc2cccc(-c3ccccc3)c2c1	> 100
7.1	O=C(O)Cc1cc2ccccc2cc1-c1ccccc1	> 200
6.6	O=C(O)Cc1ccc2c(-c3ccccc3)cccc2c1	3.1
6.9	O=C(O)Cc1c(-c2ccccc2)ccc2ccccc12	> 50
–	Cc1ccc(Cl)c(Nc2ccccc2C(=O)O)c1Cl [MECLOFENAMIC ACID]	0.4
–	COc1ccc2c(c1)c(CC(=O)O)c(C)n2C(=O)c1ccc(Cl)cc1 [INDOMETHACIN]	1.7
–	CCCCC1C(=O)N(c2ccccc2)N(c2ccccc2)C1=O [PHENYLBUTAZONE]	5.3
7	O=C(O)Cc1cc(-c2ccccc2)c2ccccc2c1	100
6.8	O=C(O)Cc1ccc(-c2ccccc2)c2ccccc12	0.1
7.2	O=C(O)Cc1ccc2ccccc2c1-c1ccccc1	> 200
6.7	O=C(O)Cc1cccc2c(-c3ccccc3)cccc12	0.1
